# Measurements published in patent US10307414B2, “Pyridinyl and fused pyridinyl triazolone derivatives” (Takeda Pharmaceutical Company Limited, priority 2013, dated 2019).
# Target: human BTK (Homo sapiens (Human), UniProt Q06187)
# Assay: BTK inhibition assay: BTK-mediated phosphorylation of FAM-labeled substrate 5-FAM-[…]-NH2 (Caliper microfluidic separation)
# Type: biochemical
# Details: residues 382 to 659 of human BTK; 60 minutes at room temperature; pIC50 = -log(IC50), IC50 molar
# Description: The activity of compounds as BTK inhibitors may be determined by a variety of methods, including in vitro and in vivo methods.
# This construct engineers an in-frame translational fusion with the Glutathione-S-Transferase (GST) protein for use in affinity purification. The fusion protein derived from this construct contains a protease recognition sequence to liberate the BTK from the GST affinity tag. […] Recombinant proteins are isolated from cellular extracts by passage over Glutathione Sepharose 4B (GE Healthcare) and the BTK moiety is released from the GST affinity tag by treatment with PreScission protease. […] The purity of the fractions is assessed by SDS PAGE and the peak protein fractions are pooled and concentrated using Amicon Ultra-15 Centrifugal Filter Devices (Millipore).
# The inhibitory properties of compounds relative to BTK is determined using a black 384-well-plate format in a buffer which contains 50 mM Hepes, 10 mM NaCl, 10 mM MgCl2, 0.2 mM EDTA, 0.01% Brij35®, 1 mM DTT, and 0.1 mg/mL BSA at pH 7.3. […] To quantify the fluorescent-labeled substrate and product following reaction, the test plate is loaded on a Caliper LC-3000, which measures percent of conversion by microfluidic-based separation. […]
# Chain of human BTK (Q06187 382-659): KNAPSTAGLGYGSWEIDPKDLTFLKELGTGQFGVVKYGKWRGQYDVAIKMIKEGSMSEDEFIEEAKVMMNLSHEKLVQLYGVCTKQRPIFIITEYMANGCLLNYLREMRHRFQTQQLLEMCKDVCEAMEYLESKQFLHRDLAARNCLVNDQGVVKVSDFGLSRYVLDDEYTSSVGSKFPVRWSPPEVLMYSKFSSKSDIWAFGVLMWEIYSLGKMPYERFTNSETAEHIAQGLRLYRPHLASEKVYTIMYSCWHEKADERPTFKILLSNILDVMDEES
smiles,measurement,value
"C=CC(=O)N1C[C@@H](C)[C@H](Oc2nc(-c3n[nH]c(=O)[nH]3)cc3ccccc23)C1 (single isomer, unassigned) [Example 19]",BTK Inhibition (pIC50),>8.2
